For 13 compounds, TGI results are on record in PubChem BioAssay (NCI).

Assay in all cases: NCI tumour cell line growth inhibition, 48 h
In experiment [1] the test system is HOP-62 NSCLC.
Experiment [2] deals with OVCAR-3 ovarian.
The subject of experiment [3] is A549 NSCLC.
The test system of experiment [4] is SK-MEL-28 melanoma.
The subject of experiment [5] is CAKI-1 renal.
In experiment [6] the test system is CCRF-CEM leukemia.
In experiment [7] the test system is MALME-3M melanoma.
For experiment [8], the system named is OVCAR-5 ovarian.
Experiment [9] deals with UO-31 renal.
In experiment [10] the test system is SK-OV-3 ovarian.

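Assay format: 96-well plates, 48-hour exposure. TGI marks complete inhibition of growth.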

On to `Cn1c2c(c3c(=O)[nH]ncc31)Cc1ccccc1-2`, for which the TGI was more than 100 µM in experiment [1]; 41.2 µM in experiment [2]; more than 100 µM in [3]; 60.1 µM in [4]; more than 100 µM in experiment [5]; more than 100 µM in [6]. Further, the TGI is 44.5 µM in experiment [7], more than 100 µM in experiment [8], 45.1 µM in [9] and more than 100 µM in experiment [10].
Take `CC(=O)OC12c3ccccc3C(c3ccccc31)C1C(=O)N(N=C(C)C)C(=O)C12` (configuration not stated): the TGI in experiment [1], in experiment [2], in [3], in [4], in experiment [5] and in [6] was more than 100 µM in each case. Besides, the TGI in experiment [7], in [8], in [9] and in experiment [10] was more than 100 µM each time.
In the case of `CC(=O)CCC1(C(=O)OCC(C)C)CCCC1=O` (configuration not stated), the TGI in [1], in experiment [2], in experiment [3], in experiment [4], in experiment [5] and in [6] was more than 100 µM throughout. The TGI in experiment [7], in experiment [8], in experiment [9] and in experiment [10] was more than 100 µM throughout.
Regarding `Cc1n[nH]c(=O)n1-n1cccc1`, the TGI in [1], in experiment [2], in [3], in [4], in experiment [5] and in [6] was more than 100 µM each time. Also, the TGI in experiment [7], in experiment [8], in experiment [9] and in [10] was more than 100 µM each time.
For the compound `Cc1cccc2c1nc1n2C(=O)c2ccccc2-1`, the TGI in experiment [2], in experiment [3], in experiment [4], in experiment [5], in [6] and in experiment [7] was more than 100 µM in each case. Besides, the TGI in experiment [8], in [9] and in experiment [10] was more than 100 µM in each case.
For the compound `BrC1(c2ccccc2)C[n+]2c(-c3ccccc3)cc(-c3ccccc3)cc2-c2ccccc21` (configuration not stated), the TGI in experiment [1] came out at 7.41 µM; in [2] it was 0.466 µM; in experiment [3], 9.77 µM; in [4], 21.2 µM; in experiment [5], 9.66 µM; in [6], 21.2 µM. Moreover, the TGI in experiment [7] is 13.2 µM; in experiment [8] it was 4.1 µM; in experiment [9] it was 3.31 µM.
On to `CC(C)Oc1cccc(N2C(CCc3c[nH]c4ccc(Br)cc34)=NS(=O)(=O)c3cnccc32)c1`, for which the TGI in experiment [1], in experiment [2], in experiment [3], in experiment [4], in [5] and in [6] was more than 100 µM throughout. Also, the TGI in experiment [7], in experiment [8], in [9] and in [10] was more than 100 µM throughout.
With `O=c1[nH]c2c(Nc3c4ccccc4nc4ccccc34)c([N+](=O)[O-])c(Nc3c4ccccc4nc4ccccc34)c([N+](=O)[O-])c2[nH]1`, the TGI in experiment [1] amounted to 20.2 µM; in [2], 6.87 µM; in [3], 3.56 µM; in [4], 11.3 µM; in experiment [5], 6.69 µM; in [6], 6.02 µM. Moreover, the TGI in experiment [7] was 3.33 µM; in [8], 5.02 µM; in experiment [9], 2.76 µM; in experiment [10], 18.4 µM.
On to `COCOC1CCCC[C@@]1(OCCOCCO[C@@]1(c2ccccc2)CCCC[C@H]1OCOC)c1ccccc1` (some centres not stated), for which the TGI in experiment [1], in experiment [2], in [3], in experiment [4], in experiment [5] and in [6] was more than 100 µM each time. The TGI in [7], in experiment [8], in experiment [9] and in [10] was more than 100 µM throughout.
Turning to `C/C(=N\NC(=S)NC(C)(C)C)c1nc2ncccc2[nH]1`, the TGI in experiment [1] is more than 84.9 µM; in experiment [2] it was more than 100 µM; in experiment [3], 43.4 µM; in experiment [4], more than 100 µM; in [5], 16.4 µM; in experiment [6] it was 35.1 µM. Also, the TGI is 60.4 µM in [7], more than 21.7 µM in experiment [8], 5.82 µM in experiment [9] and 12.6 µM in experiment [10].
For the compound `O=C(OCCN=c1c2ccccc2ccc2ccccc12)c1cc([N+](=O)[O-])cc([N+](=O)[O-])c1`, the TGI in [1], in [2], in experiment [3], in [4], in experiment [5] and in experiment [6] was more than 100 µM throughout. Besides, the TGI is 66.2 µM in [7], more than 100 µM in experiment [8], more than 100 µM in experiment [9] and more than 100 µM in experiment [10].
With `COc1ccc(/C(C=O)=C(\Cl)c2ccc(OC)c(OC)c2)cc1`, the TGI in experiment [1], in experiment [2], in [3], in [5], in experiment [6] and in experiment [7] was more than 100 µM in each case. Besides, the TGI in experiment [8], in experiment [9] and in experiment [10] was more than 100 µM in each case.
With `COc1ccc(O[C@H](CO)C[C@@H]2COC(C)(C)O2)cc1`, the TGI in experiment [1], in experiment [2], in experiment [3], in experiment [4], in experiment [5] and in experiment [6] was more than 100 µM each time. Also, the TGI in experiment [7], in experiment [8], in [9] and in experiment [10] was more than 100 µM throughout.
